# According to patent US20150005252A1, “COMBINATION THERAPY FOR THE TREATMENT OF CANCER” (TILTAN PHARMA LTD., priority 2012, published 2015):
# Tested on: Mouse pancreatic-adenocarcinoma cell-line PANC02
# Test: Orthotopic PANC02 pancreatic tumor model in mice, IP treatment, tumors excised and weighed on Day 18
# Assay type: in vivo
# Protocol: Total study duration was 18 days (Treatment period: 14 days, i.e. two weekly treatment schedules). Tumour cells inoculation day was registered as “Day 1”. The compositions were administered IP six days per week starting on Day 4.
# Tumor Cells: Mouse pancreatic-adenocarcinoma cell-line PANC02 (a kind gift from Dr A. Marten, University of Heidelberg, Germany).
# CB6F1 female mice, 21.1 g average body weight, 10 mice per treatment group.
# Five test groups were conducted, each administered with a different treatment composition and schedule as detailed in Tables 1 and 2 below.
# Treatment Groups were administered with either vehicle alone (Group 1), a combination of TL-118 and Gemcitabine (Groups 2 and 3), Gemcitabine alone 9 Group 4) and TL-118 alone (Group 5).
# • In Groups 2 and 5 the 1st day of TL-118 was Wed. while for Group 3 1st day of TL-118 was Thur. No treatment was given on Sat (see also Table 3 below).
# In Group 2 the treatment started with TL-118 and Gemcitabine was administered on the following day while in Group 3 the treatment started with Gemcitabine administration then TL-118 initiation on the following day (see Table 3 below).
# The cells were removed from flasks using trypsin. 60 million (60×10^6) cells were counted and re-suspended in 4.5 ml phosphate buffered saline. Before cell spin-down, cells were strained through cell strainer according to the following procedure: • 1. Strainer was placed on 50 ml tube; • 2. Strainer was washed with 5 ml phosphate buffered saline; • 3. Cells detached from flasks in RPMI growth medium were poured over strainer; • 4. Strainer was washed with 5 ml phosphate buffered saline.
# Tumor cells (4×10^5 cells, in 30 μl, per animal) are injected into the pancreas using needle 30 G. Tumor cells inoculation to animals was performed under anesthesia (Ketamine 85 mg/kg & Xylasine 5 mg/kg).
# Compositions were administered IP using needle 27 G. Compositions were administered daily from Day 4 for duration of […] (see Table I). Body weights measurements (twice weekly) were used for dosing volume calculations from recent measurement. […]
smiles,measurement,setting,value
"Nc1ccn([C@@H]2O[C@H](CO)[C@@H](O)C2(F)F)c(=O)n1 [Gemcitabine, 4-amino-1-(2-deoxy-2,2-difluoro-β-D-erythro-pentofuranosyl)pyrimidin-2(1H)-on]",representative tumors found at the end of treatment schedule,"FIGS. 5A-5E, compared with large tumors in vehicle Group 1",smaller volume tumors
same,End Result Effect: tumor size relative to vehicle,"Table 3, end of study, vehicle: very large tumors",small tumors relative
same,percentage of tumor bearing animals,"end of study (Day 18), CB6F1 female mice, IP, FIG. 1",about 80%
